Target: Lysine-specific demethylase 4C (Homo sapiens) (UniProt Q9H3R0)
Assay: inhibition of JMJD2C H3K9me3 demethylation – biochemical, DELFIA europium, cherry-picked samples, dose response (AID 488835);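 further: signal is the H3K9me2 demethylation product detected by a dimethyl-specific antibody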
Conditions: GST-JMJD2C(1-420)

Chain of Lysine-specific demethylase 4C (Homo sapiens) (Q9H3R0 1-420 limits assumed): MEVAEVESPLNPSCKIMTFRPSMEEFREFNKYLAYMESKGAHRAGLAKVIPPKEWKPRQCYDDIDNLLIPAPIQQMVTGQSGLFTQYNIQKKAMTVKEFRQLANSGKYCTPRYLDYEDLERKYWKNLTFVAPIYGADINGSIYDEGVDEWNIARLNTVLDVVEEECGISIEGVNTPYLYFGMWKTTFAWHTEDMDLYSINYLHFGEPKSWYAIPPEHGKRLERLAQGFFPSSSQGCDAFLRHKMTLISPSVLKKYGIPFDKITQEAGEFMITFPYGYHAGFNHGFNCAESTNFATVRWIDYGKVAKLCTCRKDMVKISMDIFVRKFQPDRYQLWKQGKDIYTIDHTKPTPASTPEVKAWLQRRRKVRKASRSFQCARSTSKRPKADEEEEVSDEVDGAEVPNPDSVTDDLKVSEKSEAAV

## C#CCOCCOCCOCCNc1nc(N2CCN(C(=O)CCCCCCCCCCNC(=O)[C@H]([C@@H](C)CC)n3cc(CCCCN=C(N)N)nn3)CC2)nc(N2CCN(C(=O)CCCCCCCCCCNC(=O)[C@H](CCCCN)n3cc(C)nn3)CC2)n1
  AC50: 6.07 µM

Source: PubChem BioAssay AID488835 (Broad Institute, 2010)
